Laboratory results from patent EP0434750B1 (priority 1988, dated 1990).
Values joined by “and” are separate entries in the source; they are usually repeats but may differ in a detail not shown here. Identical values can stand only once. Like-named read-outs stand apart in the source and are kept apart here. Blank lines part the entries; values can stand above or below the compound they belong to.

What was measured:
[1] = test system: monkeys (Macaca fascicularis); assay: Dopamine and homovanillic acid levels in monkey brain samples (HPLC); format: in vivo; conditions: short-term chloroquine and MPTP; monkeys S1-3
[2] = test system: monkeys (Macaca fascicularis); assay: Neurological examination of MPTP-treated monkeys with or without chloroquine pretreatment; format: in vivo; conditions: for Neurological Status: Reflexes / Neurological Status: Tone: control score 2; for Neurological Status: Spontaneous Movement: control score 10; for Neurological Status: Total (x 5.26): control 100; for Neurological Status: Tremor: control score 5
Text: Four animals are naive controls. […] TABLE 3

[3] = test system: Tyrosine hydroxylase (TH); assay: Tyrosine hydroxylase activity in monkey brain homogenate (tritium release method); format: in vivo, Macaca fascicularis; conditions: short-term chloroquine and MPTP; monkeys S1-3
Procedure: (§5) Thirteen male monkeys (Macaca fascicularis) 5 to 8 years old, weighing 3.5 to 4.8 kg, are studied. […] Nine receive daily (0.35 mg per kg) injections of MPTP i.v. for four days. Three animals (M1-3) who received no chloroquine are the untreated controls. Six animals are pretreated with chioroquine (4 mg per kg) intramuscularly; three (S1-3) are pretreated for 12 days, and three (L1-3) for 24 days. All six pretreated animals continue to receive chloroquine injections during MPTP administration and for 10 days following MPTP exposure.
Detection is done electrochemically on a glassy carbon electrode (Bioanalytical Systems Inc.) at an applied voltage of 0.65 V. Plasma levels of chloroquine are determined by HPLC with UV detection. Samples are deproteinated with 0.2 vol. of 25% trichloroacetic acid followed by centrifugation at 4°C for 30 minutes at 1,000 g. Supernatants are removed, lyophilized overnight and reconstituted with 80 µl of 0.1 M perchloric acid. Samples are analyzed directly using reverse-phase HPLC with a Whatman ODS-3 column (Whatman) and Pellosil C8 guard column (Alltech). The mobile phase for this system is 40% acetonitrile, 0.1 M sodium phosphate (pH 3.0) with 75 mM perchloric acid. Absorption is detected at 343 nm (Bergqvist, Y. et al., Chromat. 221, 2503 (1985)). Tyrosine hydroxylase (TH) activity is assayed by the tritium release method of Nagatsu, T. et al., Analyt. […] Supernatant fluid (50 µl) from brain homogenate (1 g tissue in 20 vol 50 mM Tris, H 7.4) are added to 7 ml glass scintillation vials containing 5 µl 6 DL-6-methyl-5,6,7,8-tetrahydropterine (2.8 mg ml^-1), 5 µl FeSO4 (2.78 mg ml ^-1) and 1 µC of ring labelled [^3H]tyrosine. Mixtures are incubated 30 minutes at 37°C and the reaction terminated by adding 50 µl 3 M Na2CO3, pH 11.6. Toluene/isoamyl alcohol scintillant (5 ml) is then added directly to the vial and the contents mixed for 10 seconds. The aqueous and organic phases are allowed to separate and the ^3H2O extracted into the organic phase determined.

[4] = cynomolgus monkey, in vivo
Procedure: as §5
Detection is done electrochemically on a glassy carbon electrode (Bioanalytical Systems Inc.) at an applied voltage of 0.65 V. Plasma levels of chloroquine are determined by HPLC with UV detection. Samples are deproteinated with 0.2 vol. of 25% trichloroacetic acid followed by centrifugation at 4°C for 30 minutes at 1,000 g. Supernatants are removed, lyophilized overnight and reconstituted with 80 µl of 0.1 M perchloric acid. Samples are analyzed directly using reverse-phase HPLC with a Whatman ODS-3 column (Whatman) and Pellosil C8 guard column (Alltech). […] Absorption is detected at 343 nm (Bergqvist, Y. et al., Chromat. 221, 2503 (1985)). […] The aqueous and organic phases are allowed to separate and the ^3H2O extracted into the organic phase determined.

[5] = Binding of MPTP to beef eye melanin (Scatchard analysis)
Procedure: Melanin from beef eyes is prepared according to Potts, A.M., Ophthalmol. 3, 405 (1964). The pigment is finally suspended in distilled water to a concentration of 10 mg (by dry weight) per ml suspension.
(§1) The reaction mixtures are incubated at room temperature for one hour. Reference samples contain distilled water instead of melanin.
(§2) From the obtained data, the classes of binding sites, association constants and the binding capacity of the melanins are estimated according to Scatchard, G. et al., J. Am. Chem. Soc. 79, 12 (1957). As the molecular weight of melanin is unknown, the value for the number of binding sites is expressed as mol per mg melanin. The calculations are based on a melanin content of 2.5 mg per incubation.

[6] = test system: squirrel monkeys; assay: Treatment of MPTP-induced parkinsonism in squirrel monkeys; format: in vivo; conditions: i.p. MPTP, three dosage schedules (Groups A-C)
Procedure: Male squirrel monkeys (aged 2-3 years) are used for this study. […] All injections are intraperitoneal.
Three different dosage schedules of MPTP are used. Monkey Group A receives four doses, 2 mg/kg each, which are given at two-hour intervals. Monkey Group B is treated over a five-day period. On day 1, a single 2 mg/kg dose is given. On day 3, two injections of 2 mg/kg each are given, six hours apart. On day 5, a 3 mg/kg dose is given followed by a 0.5 mg/kg dose four hours later (total dose: 9.5 mg/kg). Three doses of 3 mg/kg each are given to Monkey Group C, spaced at six-day intervals. Monkey Group D serves as a control.
A similar response to the same treatment is observed on each of the next four days. Subsequently, the animal becomes less responsive to medication and is sacrificed on day 10. One monkey in Group B responds to Sinemet® (one-eighth of a 10/100 tablet) with full mobility on day 9. However, on subsequent days, […] becomes increasingly less responsive to medication, often appearing uncoordinated and shaky. This monkey is sacrificed on day 15. […] Three days later, this monkey becomes profoundly hypokinetic, develops slow respirations, and dies.
After increased bradykinesis and frequent nodding-off are observed in the monkeys, several monkeys of Groups A, B and C are administered melanin by injection into the cerebrospinal fluid at a dose of 50 mg/kg daily. […]

[7] = Binding of MPTP to synthetic dopamine melanin (Scatchard analysis)
Procedure: Synthetic dopamine melanin is prepared by autooxidation (Lyden et al., supra). The dopamine melanin suspension (in distilled water) is adjusted to contain 5 mg melanin per ml. Both pigment suspensions are stored at 2°C.
as §1, §2

[8] = test system: crude striatal synaptosomal suspensions; assay: In vitro accumulation of [3H]DA by crude striatal synaptosomal suspensions; format: biochemical, mice; conditions: for Km: read-out: Km(µm) of [^3H]DA uptake
Procedure: (§3) All other studies are performed in C57 black mice.
The in vitro accumulation of [^3H]DA by crude striatal synaptosomal suspensions is measured using the method of Snyder, S.H. et al., J.Pharmacol.Exp.Ther. 165, 78 (1968) with minor modifications. Briefly, crude synaptosomal suspensions are prepared by homogenizing striatal tissue in 50 vols. (w/v) of ice-cold 0.32 M sucrose, then centrifuging the homogenate for 10 minutes at 1,000 x g. […] After vortexing, tubes (except temperature blanks) are incubated in a waterbath at 37°C for five minutes, then returned to ice. Synaptosomes are harvested by filtration. Filters are rinsed twice with 5 ml aliquots of physiological saline. Radioactivity in the filters is quantified by liquid scintillation spectroscopy. Assays are performed in sextuplicate at each DA concentration, with half of the samples serving as blanks. Active uptake is defined as the difference between [^3H]DA (PM/mg tissue/5 min.) incubation at 37°C after correction for uptake at 0-4°C.

[9] = test system: C57 black mice; assay: Lethality of MPTP regimens in mice; format: in vivo; conditions: 2.5, 5 and 10 mg/kg/h x 4 MPTP regimens
Procedure: as §3
(§4) Approximately 20% of the mice die after the 20 mg/kg/h x 4 regimen. […]

[10] = Lethality of MPTP regimens in mice; format: in vivo; conditions: mouse, in vivo, ip
Procedure: as §3, §4

[11] = test system: C57 black mice; assay: Striatal DA, DOPAC and HVA content in mice after MPTP; format: in vivo
Procedure: Male C57BL/6J IMR mice 6-8 weeks of age are used throughout except in one experiment (see below) in which CB6F1 [(BALB/cByJ IMR x C57BL/gJ IMR)F1] mice of a similar age are used. Mice are housed five per cage in plexiglass cages with free access to food and water in a colony room maintained at 23 ± 1°C. Fluorescent lighting in the room is automatically turned on at 06.00 hours and off at 18.00 hours.
as §3
The mouse striatum is obtained by placing the brain on its dorsal surface and making two coronal cuts; the first at the caudal end of the olfactory bulbs, the second at the level of the optic chiasma. After placing the resulting brain slice on its rostral surface, one horizontal cut is made just below the corpus callosum and another just above the anterior commissure. Remaining parietotemporal cortex is trimmed away using the external capsule as a landmark. Septal tissue lying between the caudate nuclei is removed by cutting along the tissue planes created by the frontal horns of the lateral ventricles. Striatal tissue thus isolated weighs approximately 20 mg per animal. Immediately after dissection, tissue is wrapped in aluminum foil and stored in liquid nitrogen until assay, with the exception of tissue for uptake studies which is used immediately.
The striatum is weighed, placed in a tube containing 1 ml of 0.4 normal perchloric acid, then homogenized with a Beckman polytron at a setting of 5 for 10 seconds. The homogenate is centrifuged at approximately 20,000 x g for 15 minutes. Concentrations of dopamine (DA), DOPAC and HVA in the supernatant are determined by reverse-phase liquid chromatography coupled with electrochemical detection according to the method of Mayer, G.S. et al., J. Chromatogr. 255, 533 (1983), with minor modifications. The mobile phase is prepared by mixing 965 ml of 0.15 M monochloroacetic acid with 35 ml of acetonitrile and adding 193 mg of sodium octyl sulfate. This solution is filtered and degassed and then 18 ml of tetrahydrofuran are added. Using this mobile phase at a flow rate of 1.3 ml/min, DA, DOPAC and HVA are resolved using a 4.6 mm x 25 cm C-18, 5 µ column (Brownless Labs). Detection and quantitation are performed using a dual series electrode detector (Coulochem Model 5100, Environmental Systems Associates, Wiggins, Mass.). Electrode potentials are set at +0.4 V (electrode 1) and -0.3 V (electrode 2). The response on electrode 2 is monitored (10 mV strip chart recorder) and used for quantitation relative to peak heights of known amounts of standards.

[12] = target: [^3H]mazindol binding site, striatal membranes (Mus musculus, UniProt Q61327); conditions: three weeks after MPTP 20 mg/kg/h x 4
[^3H]mazindol binding site, striatal membranes, sequence (Q61327 whole entry): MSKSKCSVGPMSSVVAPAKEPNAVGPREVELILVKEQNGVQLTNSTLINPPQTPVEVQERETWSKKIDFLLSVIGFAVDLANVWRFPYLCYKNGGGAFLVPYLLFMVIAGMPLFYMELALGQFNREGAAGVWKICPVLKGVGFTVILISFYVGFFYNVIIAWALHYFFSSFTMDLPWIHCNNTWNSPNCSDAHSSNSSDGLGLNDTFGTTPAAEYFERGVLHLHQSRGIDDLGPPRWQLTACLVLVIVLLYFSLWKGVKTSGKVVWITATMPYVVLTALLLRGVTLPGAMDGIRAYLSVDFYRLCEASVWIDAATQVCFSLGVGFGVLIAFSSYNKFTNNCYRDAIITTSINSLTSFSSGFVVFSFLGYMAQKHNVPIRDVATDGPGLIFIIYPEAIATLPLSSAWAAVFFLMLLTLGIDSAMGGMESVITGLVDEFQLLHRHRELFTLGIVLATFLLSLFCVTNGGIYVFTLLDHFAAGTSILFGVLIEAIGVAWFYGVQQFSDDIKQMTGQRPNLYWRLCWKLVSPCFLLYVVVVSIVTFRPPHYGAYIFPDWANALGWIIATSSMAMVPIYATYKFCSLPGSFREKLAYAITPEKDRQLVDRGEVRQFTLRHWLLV
Procedure: This group is used only for anatomical studies looking for cell loss in the substantive nigra cells (SNc). All other studies are performed in C57 black mice.

[13] = test system: C57 black mice; assay: Silver degeneration study of striatal nerve terminals (Fink-Heimer); format: in vivo
Procedure: Nerve terminal degeneration studies are performed using the method of Fink, R.P. et al., Brain Research 4, 369 (1967) (Procedure 1). This method makes possible selective silver impregnation of degenerating nerve fibers and terminals. Mice for these studies are killed under sodium pentobarbital anesthesia (40 mg/kg) by transcardial perfusion with 10% formal saline. The brain is immediately removed and stored in perfusion fluid at 0-4°C for at least one week before being sectioned on a freezing microtomee. 30 µm coronal sections are collected in 5% formal saline, then stained with silver according to Fink et al., supra.
Some fine granular degeneration is also found in the nucleus accumbens and olfactory tubercle, but in these regions it was much less dense. No such degeneration is found in identically treated sections of control mice, or in other brain regions visible in coronal brain sections at the level of the striatum.

[14] = long-term chloroquine (24 days) plus MPTP, monkeys L1-3
[15] = short-term chloroquine (12 days) plus MPTP, monkeys S1-3
[16] = one week after MPTP 20 mg/kg/h x 4
[17] = three months after MPTP 20 mg/kg/h x 4

Compound: CCN(CC)CCCC(C)Nc1ccnc2cc(Cl)ccc12 (stereo not shown) [Chloroquine]
CAUDATE HVA [1]: 8.0 nmol per g tissue and 10.5 nmol per g tissue and 9.2 nmol per g tissue
PUTAMEN HVA [1]: 10.1 nmol per g tissue and 8.6 nmol per g tissue and 9.8 nmol per g tissue
protection from MPTP-induced parkinsonian clinical symptoms ([2]; chloroquine 4 mg per kg i.m. pretreatment, 12 or 24 days): Five of the six monkeys
Neurological Status: Reflexes [2, 14]: 1 and 2
Neurological Status: Tone [2, 14]: 1.5 and 1 and 2
Neurological Status: Spontaneous Movement ([2]; short-term chloroquine 4 mg per kg i.m., pretreated 12 days, plus MPTP, monkeys S1-3): 3
Neurological Status: Total (x 5.26) [2, 15]: 47 and 58 and 42
Neurological Status: Reflexes [2, 15]: 1 and 2
Neurological Status: Tone [2, 15]: 2 and 1
Neurological Status: Tremor [2, 15]: 3 and 4
CAUDATE TH (% control) [3]: 14.0 % control and 18.7 % control and 22.6 % control
PUTAMEN TH (% control) [3]: 20.0 % control and 23.3 % control and 29.8 % control
Chloroquine level relative to that in other monkeys monitored [4]: * Chloroquine level is 36% of that in other monkeys monitored.
Chloroquine in plasma ([4]; im, 4 mg/kg): 300 ng ml^-

Compound: CN1CC=C(c2ccccc2)CC1 [MPTP, 1-Methyl-4-phenyl-1,2,5,6-tetrahydropyridine]
association constant K1 ([5]; MPTP 5.7 µM - […], room temperature, one hour, first class of binding sites, 60 min): K1 = 2.32 x 10^5 M^-1
total binding capacity (Σn) ([5]; beef eye melanin): 0.53 µmol/mg melanin
number of binding sites n1 ([5]; first class of binding sites): n1 = 0.09 µ mole per mg melanin
number of binding sites n2 ([5]; second class of binding sites): n2 = 0.44 µ mole per mg melanin
association constant K2 ([5]; second class of binding sites, 60 min): K2 = 1.22 x 10^3 M^-1
behavioural effect of MPTP [6]: profoundly akinetic
number of binding sites n1 ([7]; first class of binding sites): n1 = 0.08 µ mole per mg melanin
association constant K1 ([7]; first class of binding sites, 60 min): K1 = 5.82 x 10^5 M^-1
association constant K2 ([7]; second (intermediary) class of binding sites, 60 min): K2 = 1.22 x 10^4 M^-1
number of binding sites n2 ([7]; second class of binding sites): n2 = 0.05 µ mole per mg melanin
number of binding sites n3 ([7]; third class of binding sites): n3 = 0.14 µ mole per mg melanin
association constant K3 ([7]; third class of binding sites, 60 min): K3 = 7.68 x 10^2 M^-1
Vmax of [^3H]DA striatal uptake, % of control [8, 16]: 37 % of control
decrease of Vmax of striatal synaptosomal [^3H]DA uptake [8, 16]: 62%
Vmax of [^3H]DA uptake ([8]; one week after MPTP 20 mg/kg/h x 4, control 5540 ± 480): 2080 ± 305 cpm[^3H]DA/mg tissue/5 min
Km ([8]; striatal synaptosomes of mice one week after MPTP 20 mg/kg/h x 4): 0.12 ± 0.02 µM
Vmax of [^3H]DA striatal uptake, % of control [8, 17]: 79 % of control
Vmax of [^3H]DA striatal uptake ([8]; three months after MPTP, control 6238 (± 520)): 4928 (± 408) CPM [^3H]DA/mg tissue/5 min
lethality [9]: No lethality
mortality ([10]; 20 mg/kg/h x 4 regimen, read-out: mice that die): ~20%
mortality ([10]; read-out: animals killed): > 50%
Neurological Status: Spontaneous Movement ([2]; MPTP alone 0.35 mg per kg i.v. daily for four days, individual monkeys): 1
Neurological Status: Total (x 5.26) ([2]; MPTP alone, individual monkeys): 16 and 29 and 8
Neurological Status: Reflexes ([2]; MPTP alone, individual monkeys): 0.5 and 1.5 and 0
Neurological Status: Tone ([2]; MPTP alone, individual monkeys): 0.5 (2×) and 2
Neurological Status: Tremor ([2]; MPTP alone, individual monkeys): 1 (2×) and 0
striatal DA level, % of control ([11]; 15 months after MPTP 20 mg/kg/h x 4): 69 % of control
striatal concentration of DOPAC ([11]; MPTP 20 mg/kg/h x 4, control 0.96 (±0.14)): 0.28 (±0.02) µg/g
striatal concentration of HVA ([11]; MPTP 20 mg/kg/h x 4, control 1.38 (±0.05)): 0.60 (±0.06) µg/g
DA ([11]; mouse striatum one week after MPTP 20 mg/kg/h x 4 i.p.): 2.8 ± 0.5 µg/g
DA ([11]; mouse striatum one week after MPTP 30 mg/kg/day x 10 i.p.): 3.5 ± 0.3 µg/g
% Depletion of striatal DA [11, 16]: 74%
HVA, % of control [11, 16]: 43 % of control
striatal DA level, % of control [11, 16]: 28 % of control
% Depletion of striatal DA ([11]; one week after MPTP 30 mg/kg/day x 10): 67%
HVA, % of control [11, 17]: 80 % of control
depletion of striated DA [11, 17]: 34%
HVA ([11]; three months after MPTP, control 1.36 ± 0.11): 1.09 ± 0.04 µg/g
DOPAC ([11]; three months after MPTP, controls 1.53 ±0.09 µg/g): 1.03 ± 0.03 µg\g
reduction of Bmax of [^3H]mazindol binding sites [12]: 44%
Bmax of [^3H]mazindol binding ([12]; control 361): 201 pmol/g tissue
fine granular argyrophilic debris in striata ([13]; MPTP 20 mg/kg/h x 4, killed one day later): Three of three mice

Km ([8]; striatal synaptosomes of control mice): 0.14 ± 0.02 µM
Compound: NCCc1ccc(O)c(O)c1 [[^3H]DA, dopamine]

Compound: C#CCN(C)Cc1ccccc1 [pargyline]
evidence of striatal terminal degeneration ([13]; pretreated with 25 mg/kg of pargyline, then MPTP 20 mg/kg/h x 4): None of three mice
